Assay results as given in patent US9518018B2, “3-alkoxy, thioalkyl and amino-4-amino-6-(substituted)picolinates and their use as herbicides” (Dow AgroSciences LLC, priority 2011, dated 2016).

How the values were obtained:
[1] = test system: EPHHL: wild poinsettia (Euphorbia heterophylla); test: Post-Emergent Test I herbicidal activity; type: in vivo; conditions: post-emergence, 336 h, read-out: Visual Growth Reduction (%)-14 Days after Application EPHHL; for pest or weed control at 140 g/ha: Table 3, 140 g ai/ha; for pest or weed control at 280 g/ha: Table 3, 280 g ai/ha
Outline: (§1)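 Greenhouse-grown seedlings (peat-based mix, pH 6.0–6.8; ~15 h photoperiod, 23–29 °C day) were sprayed post-emergence at first/second true-leaf stage with compound in acetone/DMSO/aqueous crop-oil–surfactant carrier at 187 L/ha, using a twofold rate series. Injury was scored visually after 14 d (0–100%); GR20/GR50/GR80 derived by probit analysis.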

[2] = test system: CHEAL: lambsquarters (Chenopodium album); test: Post-Emergent Test I herbicidal activity; type: in vivo; conditions: Chenopodium album, post-emergence, 336 h, read-out: Visual Growth Reduction (%)-14 Days after Application CHEAL; for pest or weed control at 140 g/ha: Table 3, 140 g ai/ha; for pest or weed control at 280 g/ha: Table 3, 280 g ai/ha
Outline: as §1

[3] = test system: CYPES: yellow nutsedge (Cyperus esculentus); test: Post-Emergent Test I herbicidal activity; type: in vivo; conditions: post-emergence, 336 h, read-out: Visual Growth Reduction (%)-14 Days after Application CYPES; for pest or weed control at 140 g/ha: Table 3, 140 g ai/ha; for pest or weed control at 280 g/ha: Table 3, 280 g ai/ha
Outline: as §1

[4] = test system: ZEAMX: corn (Zea mays); test: Post-Emergent Test I herbicidal activity; type: in vivo; conditions: Zea mays, post-emergence, 336 h, read-out: Visual Growth Reduction (%)-14 Days after Application ZEAMX; for pest or weed control at 140 g/ha: Table 3, 140 g ai/ha; for pest or weed control at 280 g/ha: Table 3, 280 g ai/ha
Outline: as §1

[5] = test system: ECHCG: barnyardgrass (Echinochloa crus-galli); test: Post-Emergent Test I herbicidal activity; type: in vivo; conditions: post-emergence, 336 h, read-out: Visual Growth Reduction (%)-14 Days after Application ECHCG; for pest or weed control at 140 g/ha: Table 3, 140 g ai/ha; for pest or weed control at 280 g/ha: Table 3, 280 g ai/ha
Outline: (§2)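 Visual injury ratings (0 = none, 100 = complete kill) taken 14 d after treatment, compared with untreated plants, feed probit-derived GR20/GR50/GR80. Application: overhead spray, 187 L/ha, highest rate and ½×-1/16× dilutions in acetone-DMSO-based aqueous spray mix with crop oil and surfactant, onto plants grown 7-21 d to first or second true leaf.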

[6] = test system: ABUTH: velvetleaf (Abutilon theophrasti); test: Post-Emergent Test I herbicidal activity; type: in vivo; conditions: Abutilon theophrasti, post-emergence, 336 h, read-out: Visual Growth Reduction (%)-14 Days after Application ABUTH; for pest or weed control at 140 g/ha: Table 3, 140 g ai/ha; for pest or weed control at 280 g/ha: Table 3, 280 g ai/ha
Outline: as §1

[7] = test system: ORYSA: rice (Oryza sativa); test: Post-Emergent Test I herbicidal activity; type: in vivo; conditions: post-emergence, 336 h, read-out: Visual Growth Reduction (%)-14 Days after Application ORYSA; for pest or weed control at 140 g/ha: Table 3, 140 g ai/ha; for pest or weed control at 280 g/ha: Table 3, 280 g ai/ha
Outline: as §2

| Structure (SMILES) | melting point | pest or weed control at 140 g/ha [1] | pest or weed control at 140 g/ha [2] | pest or weed control at 140 g/ha [3] | pest or weed control at 140 g/ha [4] | pest or weed control at 140 g/ha [5] | pest or weed control at 140 g/ha [6] | pest or weed control at 140 g/ha [7] | pest or weed control at 280 g/ha [1] | pest or weed control at 280 g/ha [2] | pest or weed control at 280 g/ha [3] | pest or weed control at 280 g/ha [4] | pest or weed control at 280 g/ha [5] | pest or weed control at 280 g/ha [6] | pest or weed control at 280 g/ha [7] | other results |
| --- | --- | --- | --- | --- | --- | --- | --- | --- | --- | --- | --- | --- | --- | --- | --- | --- |
| COC(=O)c1nc(-c2ccc(C(F)(F)F)cc2)c(F)c(N)c1OC [Compound 35] | 97 to 99 °C | 100% | 100% | 100% | 70% | 80% | 75% | 0% | – | – | – | – | – | – | – | – |
| COC(=O)c1nc(Cl)c(Cl)c(N)c1OC [Compound 2, methyl 4-amino-5,6-dichloro-3-methoxypicolinate] | 119 to 121 °C | – | – | – | – | – | – | – | 95% | 90% | 0% | 0% | 0% | 90% | 0% | – |
| COC(=O)c1nc(-c2ccc(C(F)(F)F)c(F)c2F)c(F)c(N)c1OC [Compound 38] | 139 to 141 °C | 100% | 90% | 50% | 75% | 10% | 85% | 0% | – | – | – | – | – | – | – | – |
| CCc1nc(C(=O)OC)c(OC)c(N)c1F [Compound 13, methyl 4-amino-6-ethyl-5-fluoro-3-methoxypicolinate] | 110.5 to 113 °C | – | – | – | – | – | – | – | 70% | 90% | 0% | 0% | 0% | 0% | 0% | – |
| COC(=O)c1nc(-c2ccc(Cl)c(OC)c2F)cc(N)c1OC [Compound 5, methyl 4-amino-6-(4-chloro-2-fluoro-3-methoxyphenyl)-3-methoxypicolinate] | 114 to 118 °C | – | – | – | – | – | – | – | – | – | – | – | – | – | – | pest or weed control at 70 g/ha ([1]; Table 3, 70 g ai/ha): 100%; pest or weed control at 70 g/ha ([2]; Table 3, 70 g ai/ha): 100%; pest or weed control at 70 g/ha ([3]; Table 3, 70 g ai/ha): 20%; pest or weed control at 70 g/ha ([4]; Table 3, 70 g ai/ha): 60%; pest or weed control at 70 g/ha ([5]; Table 3, 70 g ai/ha): 80%; pest or weed control at 70 g/ha ([6]; Table 3, 70 g ai/ha): 100%; pest or weed control at 70 g/ha ([7]; Table 3, 70 g ai/ha): 0% |

Further lines, with some results ahead:

| melting point | Structure (SMILES) | pest or weed control at 140 g/ha [1] | pest or weed control at 140 g/ha [2] | pest or weed control at 140 g/ha [3] | pest or weed control at 140 g/ha [4] | pest or weed control at 140 g/ha [5] | pest or weed control at 140 g/ha [6] | pest or weed control at 140 g/ha [7] | pest or weed control at 280 g/ha [1] | pest or weed control at 280 g/ha [2] | pest or weed control at 280 g/ha [3] | pest or weed control at 280 g/ha [4] | pest or weed control at 280 g/ha [5] | pest or weed control at 280 g/ha [6] | pest or weed control at 280 g/ha [7] | other results |
| --- | --- | --- | --- | --- | --- | --- | --- | --- | --- | --- | --- | --- | --- | --- | --- | --- |
| 125 to 126 °C | COC(=O)c1nc(-c2ccc(Cl)c(F)c2)c(F)c(N)c1SC [Compound 93, Methyl 4-amino-6-(4-chloro-3-fluorophenyl)-5-fluoro-3-(methylthio)picolinate] | 50% | 90% | 0% | 0% | 0% | 30% | 0% | – | – | – | – | – | – | – | – |
| 169 to 171 °C | COc1c(Cl)ccc(-c2cc(N)c(OC(F)F)c(C(=O)O)n2)c1F [Compound 64] | – | – | – | – | – | – | – | 95% | 85% | 0% | 10% | 0% | 50% | 0% | – |
| 123 to 125 °C | CCOC(=O)c1nc(-c2ccc(Cl)cc2F)cc(N)c1OCC(F)(F)F [Compound 67, ethyl 4-amino-6-(4-chloro-2-fluorophenyl)-3-(2,2,2-trifluoro-ethoxy)picolinate] | – | – | – | – | – | – | – | 35% | 50% | 0% | 0% | 0% | 25% | 0% | – |
| 130 to 132 °C | COC(=O)c1nc(-c2ccc(C(F)(F)F)nc2)c(F)c(N)c1OC [Compound 40] | 100% | 100% | 100% | 70% | 50% | 80% | 0% | – | – | – | – | – | – | – | – |
